Counter-ions that a name gives are not always drawn.
Target: T1, histamine 3 receptor (H3R) (Homo sapiens, UniProt Q9Y5N1)
T1 construct: expressed in transfected cells; host or cells: CHO cells (HR3-CHO cell line), membranes
Experiment: Binding assay with 3H-(R)α-methylhistamine (competition binding, membranes of the human HR3-CHO cell line)
Details: competition against 3H(R)α-methylhistamine (1 nM), Ki calculated from IC50 by the Cheng-Prusoff equation
Method: Binding assay with ^3H-(R)α-methylhistamine
Saturation binding experiments were performed using HR3-CHO membranes prepared as described in Takahashi, K, Tokita, S., Kotani, H. (2003) J. Pharmacol. Exp. Therapeutics 307, 213-218.
An appropriate amount of membrane (60 to 80 μg protein/well) was incubated with increasing concentrations of ^3H(R)α-Methylhistamine di-hydrochloride (0.10 to 10 nM). Non specific binding was determined using a 200 fold excess of cold (R)α-Methylhistamine dihydrobromide (500 nM final concentration). The incubation was carried out at room temperature (in deep-well plates shaking for three hours). The final volume in each well was 250 μl. The incubation was followed by rapid filtration on GF/B filters (pre-soaked with 100 μl of 0.5% PEI in Tris 50 mM shaking at 200 rpm for two hours). The filtration was made using a cell-harvester and the filter plates were then washed five times with ice cold washing buffer containing 0.5 M NaCl. After harvesting, the plates were dried at 55° C. for 60 min, then we added scintillation fluid (Microscint 40, 40 microl in each well) and the amount of radioactivity on the filter was determined in Packard top-counter after shaking the plates for two hours at 200 rpm at room temperature.
Binding Buffer: 50 mM Tris-HCl pH 7.4 and 5 mM MgCl2×6H2O pH 7.4.
Washing Buffer: 50 mM Tris-HCl pH 7.4 and 5 mM MgCl2×6H2O and 0.5 M NaCl pH 7.4.
Indirect measurement of affinity of H3R inverse agonists: twelve increasing concentrations (ranging from 10 μM to 0.3 nM) of the selected compounds were always tested in competition binding experiments using membrane of the human HR3-CHO cell line. […]
All compounds were tested at a single concentration in duplicate. […] Ki's were calculated from IC50 based on Cheng-Prusoff equation (Cheng, Y, Prusoff, W H (1973) Biochem Pharmacol 22, 3099-3108): Ki=IC50/[1+D/Kd] wherein D is the concentration of the radioligand and Kd is the binding constant for the radioligand binding to the receptor under the conditions used in the competition experiment.

T1 sequence (Q9Y5N1 whole entry): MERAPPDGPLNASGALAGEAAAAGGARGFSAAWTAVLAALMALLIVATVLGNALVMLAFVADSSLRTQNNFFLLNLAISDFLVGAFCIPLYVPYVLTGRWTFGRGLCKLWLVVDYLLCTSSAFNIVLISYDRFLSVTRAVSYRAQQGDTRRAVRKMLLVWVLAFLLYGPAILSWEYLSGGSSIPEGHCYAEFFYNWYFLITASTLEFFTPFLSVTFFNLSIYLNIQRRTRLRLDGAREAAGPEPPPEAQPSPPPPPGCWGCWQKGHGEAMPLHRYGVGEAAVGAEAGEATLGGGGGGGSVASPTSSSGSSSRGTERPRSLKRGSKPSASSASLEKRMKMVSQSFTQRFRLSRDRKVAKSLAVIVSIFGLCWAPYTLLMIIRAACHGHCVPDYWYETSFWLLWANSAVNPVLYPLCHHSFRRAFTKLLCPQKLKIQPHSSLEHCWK

Row | SMILES | Ki
1 | CC(C)CN1CCC(c2c[nH]c3cc(C(=O)N4CCN(C(C)C)CC4)ccc23)CC1 [Example 2, [3-(1-Isobutyl-piperidin-4-yl)-1H-indol-6-yl]-(4-isopropyl-piperazin-1-yl)-methanone; hydrochloride] | 24.3 nM
2 | CN1CCCC1c1c[nH]c2cc(C(=O)N3CCN(C4CCCC4)CC3)ccc12 (stereo not drawn) [Example 35, (4-Cyclopentyl-piperazin-1-yl)-[3-(1-methyl-pyrrolidin-2-yl)-1H-indol-6-yl]-methanone] | 33.1 nM
3 | CC(C)CN1CC=C(c2cn(-c3ccc(F)cc3F)c3cc(C(=O)N4CCN(C(C)C)CC4)ccc23)CC1 [Example 54, [1-(2,4-Difluoro-phenyl)-3-(1-isobutyl-1,2,3,6-tetrahydro-pyridin-4-yl)-1H-indol-6-yl]-(4-isopropyl-piperazin-1-yl)-methanone] | 17.6 nM

From patent publication US7514433B2, “1H-indole-6-yl-piperazin-1-yl-methanone derivatives” (Hoffmann-La Roche Inc., priority 2006, dated 2009)
